In US5516796A, “Thioprostaglandins and -prostaglandin-like compounds and therapeutic uses thereof” (Kabi Pharmacia AB, priority 1994, dated 1996):

Legend:
eye [1] = experiment: Maximum reduction of intraocular pressure in cats after topical application; assay type: in vivo; conditions: for Intraocular pressure, Exp Eye / Maximum reduction of intraocular pressure, Difference (Exp Eye vs Cont Eye): 1-3 hours after application, mean ± SEM, n = 6
Method: (§1) Experiments were performed in cats and rabbits. The test compounds were administered topically to the eye. The compounds were tested by using a single dose of each concentration. The intraocular pressure in cats was measured with a pneumotonometer (Digilab Modular One, BioRad). Before the measurement the cornea was anaesthetized with 1-2 drops of oxibuprocain. The ocular irritation (discomfort) caused by the test compounds was assessed without anaesthesia in the same animals. The irritation was graded on an arbitrary scale 0-3, 0 indicating absence of irritation, and 3 indicating maximum irritation as obvious from complete lid closure. Surface hyperemia of the eye (redness of the eye) was evaluated in rabbits. The eye was photographed at regular intervals and the degree of hyperemia was evaluated from the color photographs in a masked way. The hyperemia was evaluated on an arbitrary scale 0-5, 0 indicating absence of hyperemia and 5 marked hyperemia and conjunctival chemosis. All compounds were formulated in physiologic saline using polysorbate 80 as solubilizer. The same volume of the vehicle only was applied topically on the contralateral control eye.
Maximum reduction of intraocular pressure in cats 1-3 hours after
application of different thioprostaglandin compounds (Mean ± SEM; n =

eye [2] = experiment: Ocular irritation (discomfort) after topical application, scale 0-3; assay type: in vivo, cats; conditions: for Maximum ocular irritation, Difference (experimental vs contralateral control eye): cats, topical, mean ± SEM, n = 6; for Ocular irritation grade (maximum irritation): same test system
Method: as §1
Maximum ocular irritation after topical
application of different thioprostaglandin compounds in
cats. The values represent the difference between the
experimental and contralateral control eyes (Mean ± SEM,

cat iris sphincter = experiment: In vitro bioassay, cat iris sphincter
Description: (§2) In vitro bioassay studies of thioprostaglandins according to this invention have shown that such thioprostaglandins exert biological effects on several mammalian tissues and organ systems. […] These biological effects have no known relationship to the IOP lowering effects of these prostaglandins.

rat gastric fundus = experiment: In vitro bioassay, rat gastric fundus
Description: as §2

platelet aggregation = experiment: In vitro bioassay, platelet aggregation; assay type: cell-based
Description: as §2

bovine iris sphincter = experiment: In vitro bioassay, bovine iris sphincter
Description: as §2

[3] = test system: circular preparation of the guinea pig ileum; experiment: In vitro bioassay, guinea pig ileum circular preparation
Description: as §2

eye [4] = experiment: Surface hyperemia of the eye after topical application, scale 0-5; assay type: in vivo, rabbits; conditions: 0.5 μg; for Maximum surface hyperemia of the eye, Difference (Exp Eye vs Cont Eye) / Maximum surface hyperemia of the eye, Exp Eye: rabbits, topical, mean ± SEM, n = 6; for Ocular surface hyperemia grade: same test system
Method: as §1
Maximum surface hyperemia of the eye after
topical application of different thioprostaglandins in
rabbits. (Mean ± SEM, n = 6).

Structure (SMILES)	Intraocular pressure, Exp Eye (eye [1]; 3 ug) [mmHg]	Maximum reduction of intraocular pressure, Difference (Exp Eye vs Cont Eye) (eye [1]; 3 ug) [mmHg]	Maximum ocular irritation, Difference (experimental vs contralateral control eye) (eye [2]; 3 μg)	Intraocular pressure, Exp Eye (eye [1]; 1 ug) [mmHg]	Maximum reduction of intraocular pressure, Difference (Exp Eye vs Cont Eye) (eye [1]; 1 ug) [mmHg]	Maximum ocular irritation, Difference (experimental vs contralateral control eye) (eye [2]; 1 μg)	Maximum surface hyperemia of the eye, Difference (Exp Eye vs Cont Eye) (eye [4])	Maximum surface hyperemia of the eye, Exp Eye (eye [4])	other results
CCCCC[C@H](O)/C=C/[C@H]1C(SCc2ccccc2)CC(=O)[C@@H]1C/C=C\CCCC(=O)OCc1ccccc1 (some centres unmarked) [Compound 3, 11-deoxy-11-thiobenzyl-PGE2 benzyl ester]	14.7 ± -0.7	-3.7 ± -1.3	0.08 ± -0.08	–	–	–	–	–	Intraocular pressure, Exp Eye (eye [1]; 5 ug): 13.0 ± -0.4 mmHg; Maximum reduction of intraocular pressure, Difference (Exp Eye vs Cont Eye) (eye [1]; 5 ug): -3.8 ± -0.5 mmHg; 24 hour reduction of the intraocular pressure (in words) (eye [1]; 24 hour): Except for compound 3, all compounds caused 24 hour reduction of the intraocular pressure; Maximum ocular irritation, Difference (experimental vs contralateral control eye) (eye [2]; 5 μg): 1.33 ± -0.1; Stimulation of the cat iris sphincter (cat iris sphincter): stimulate; Stimulation of the rat gastric fundus (rat gastric fundus): stimulate; Effect on platelet aggregation (platelet aggregation): affect platelet aggregation; Stimulation of the bovine iris sphincter (bovine iris sphincter): stimulate; Stimulation of the circular preparation of the guinea pig ileum [3]: stimulate
CCCCC[C@H](O)/C=C/[C@H]1C(SCC(N)C(=O)OCC)CC(=O)[C@@H]1C/C=C\CCCC(=O)OCc1ccccc1 (some centres unmarked) [Compound 4]	16.3 ± -0.7	-4.3 ± -1.6	0.75 ± -0.1	–	–	–	–	–	Intraocular pressure, Exp Eye (eye [1]; 10 ug): 14.0 ± -0.7 mmHg; Maximum reduction of intraocular pressure, Difference (Exp Eye vs Cont Eye) (eye [1]; 10 ug): -5.8 ± -1.1 mmHg; Maximum ocular irritation, Difference (experimental vs contralateral control eye) (eye [2]; 10 μg): 0.58 ± -0.08; Stimulation of the cat iris sphincter (cat iris sphincter): stimulate; Stimulation of the rat gastric fundus (rat gastric fundus): stimulate; Effect on platelet aggregation (platelet aggregation): affect platelet aggregation; Stimulation of the bovine iris sphincter (bovine iris sphincter): stimulate; Stimulation of the circular preparation of the guinea pig ileum [3]: stimulate
CCCCC[C@H](O)/C=C/[C@H]1C(SCCC(=O)OCC)CC(=O)[C@@H]1C/C=C\CCCC(=O)OC (some centres unmarked) [Compound 5, 11-Deoxy-11-[3-thio-(1-ethylpropionate)] PGE2 methyl ester]	11.5 ± -1.6	-9.2 ± -1.2	0.58 ± -0.08	12.7 ± -1.0	-9.5 ± -0.8	1.08 ± -0.2	0.3 ± -0.2	1.1 ± -0.2	Reduction of intraocular pressure (in words) (eye [1]): The strongest effect; Reduction of intraocular pressure at low dose (in words) (eye [1]; 1 μg): markedly reduced the pressure; Intraocular pressure, Exp Eye (eye [1]; 10 ug): 12.3 ± -1.3 mmHg; Maximum reduction of intraocular pressure, Difference (Exp Eye vs Cont Eye) (eye [1]; 10 ug): -10.0 ± -0.9 mmHg; Maximum ocular irritation, Difference (experimental vs contralateral control eye) (eye [2]; 10 μg): 2.00 ± -0.1
CCCCC[C@H](O)/C=C/[C@H]1C(SCCO)CC(=O)[C@@H]1C/C=C\CCCC(=O)OC (some centres unmarked) [Compound 6, 11-Deoxy-11-(thio-1-ethanol)-PGE2 methyl ester]	13.8 ± -0.9	-6.0 ± -1.3	0.67 ± -0.1	14.7 ± -1.0	-5.8 ± -1.0	0.92 ± -0.08	0.8 ± -0.1	1.7 ± -0.1	–
CCCCC[C@H](O)/C=C/[C@H]1C(Sc2ccccc2C(=O)OC)CC(=O)[C@@H]1C/C=C\CCCC(=O)OC (some centres unmarked) [Compound 7, 11-Deoxy-11-[thio-2-(methylbenzoate)-]PGE2 methyl ester]	–	–	–	16.2 ± -1.3	-4.3 ± -0.7	1.08 ± -0.2	0.6 ± -0.2	1.2 ± -0.2	–
CCCCC[C@H](O)/C=C/[C@H]1[C@H](O)CC(=O)[C@@H]1C/C=C\CCCC(=O)OC(C)C [PGE2 -isopropyl ester, reference compound]	–	–	–	–	–	–	–	–	Ocular irritation grade (maximum irritation) (eye [2]; 1 μg): 3 grade; Ocular surface hyperemia grade (eye [4]): ≥ 2.9 grade
CCCCC[C@H](O)/C=C/[C@@H]1[C@@H](C/C=C\CCCC(=O)OC(C)C)[C@@H](O)C[C@H]1O [PGF2α -isopropyl ester, reference compound]	–	–	–	–	–	–	–	–	Ocular irritation grade (maximum irritation) (eye [2]; 1 μg): 3 grade; Ocular surface hyperemia grade (eye [4]): ≥ 2.9 grade
